target: T1, B1R of the rat (Rattus norvegicus, UniProt P97583); test: FLIPR Ca2+ functional assay, B1R antagonism, rat B1R in CHO K1 cells; assay type: cell-based; conditions: test substance 10 μM; rB1R CHO K1 cells; agonist Des-Arg9 bradykinin at EC80; % of maximum achievable inhibition
T1 construct: expressed in transfected cells; host or cells: CHO K1 cells (Chinese hamster ovary), stably transfected
T1 sequence (P97583 1-337): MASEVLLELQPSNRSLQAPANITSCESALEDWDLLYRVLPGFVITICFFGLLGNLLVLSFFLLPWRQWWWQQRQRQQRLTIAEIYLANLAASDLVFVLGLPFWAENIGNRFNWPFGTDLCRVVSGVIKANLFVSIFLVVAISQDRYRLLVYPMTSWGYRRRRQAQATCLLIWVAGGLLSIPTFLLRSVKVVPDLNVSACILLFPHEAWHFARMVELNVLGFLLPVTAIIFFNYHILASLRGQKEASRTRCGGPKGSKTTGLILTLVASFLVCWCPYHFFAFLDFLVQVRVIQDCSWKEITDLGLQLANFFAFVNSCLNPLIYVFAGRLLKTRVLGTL
Summary of the method: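 Stably transfected CHO K1 cells loaded with Fluo-4; Ca2+ fluorescence read on FLIPR (ex 488/em 540 nm). Compound preincubated 10-20 min, then agonist at EC80: Lys-Des-Arg9 bradykinin (human) or Des-Arg9 bradykinin (rat). % inhibition vs maximal inhibition; IC50 from concentration series, n=2-3, N>=2.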

Q: For O=C(CC1c2cccn2CCN1S(=O)(=O)c1cccc(C(F)(F)F)c1)N1CCC(N2CCCCC2)CC1 (centres unmarked) [Example 188, 1-(4-Piperidin-1-yl-piperidin-1-yl)-2-[2-[[3-(trifluoromethyl)phenyl]sulfonyl]-1,2,3,4-tetrahydro-pyrrolo[1,2-a]pyrazin-1-yl]-ethanone], which inhibition at 10 µM is on record?
A: -2.25%

Q: For Cc1ccc2[nH]c(C3CCN(C(=O)CC4c5cccn5CCN4S(=O)(=O)c4cccc(C(F)(F)F)c4)CC3)nc2c1 (centres unmarked) [Example 189, 1-[4-(5-Methyl-1H-benzoimidazol-2-yl)-piperidin-1-yl]-2-[2-[[3-(trifluoromethyl)phenyl]sulfonyl]-1,2,3,4-tetrahydro-pyrrolo[1,2-a]pyrazin-1-yl]-ethanone], which inhibition at 10 µM is on record?
A: -1.61%

Q: How did the inhibition at 10 µM turn out when O=C(CC1c2cccn2CCN1S(=O)(=O)c1cccc(C(F)(F)F)c1)N1CCN(c2ccccn2)CC1 (centres unmarked) [Example 190, 1-(4-Pyridin-2-yl-piperazin-1-yl)-2-[2-[[3-(trifluoromethyl)phenyl]sulfonyl]-1,2,3,4-tetrahydro-pyrrolo[1,2-a]pyrazin-1-yl]-ethanone] was run?
A: 20.4%

Q: Cc1cc(S(=O)(=O)N2CCn3cccc3C2CC(=O)N(C)C(CN2CCN(C)CC2)c2ccccc2)c(C)cc1Cl (centres unmarked) [Example 230, 2-[2-[(4-Chloro-2,5-dimethyl-phenyl)sulfonyl]-1,2,3,4-tetrahydro-pyrrolo[1,2-a]pyrazin-1-yl]-N-methyl-N-[2-(4-methyl-piperazin-1-yl)-1-phenyl-ethyl]-acetamide] was tested. Which inhibition at 10 µM did it give?
A: 5.28%

Q: How did the inhibition at 10 µM turn out when O=C(CC1c2cccn2CCN1S(=O)(=O)c1ccccc1)N1CCN(c2ccc(Cl)c(Cl)c2)CC1 (centres unmarked) [Example 231, 2-[2-(Benzenesulfonyl)-1,2,3,4-tetrahydro-pyrrolo[1,2-a]pyrazin-1-yl]-1-[4-(3,4-dichlorophenyl)-piperazin-1-yl]-ethanone] was run?
A: -0.67%

Q: Which inhibition at 10 µM does the source give for Cc1ccc(CN2CCN(C(=O)CC3c4cccn4CCN3S(=O)(=O)c3ccccc3)CC2)cc1 (centres unmarked) [Example 232, 2-[2-(Benzenesulfonyl)-1,2,3,4-tetrahydro-pyrrolo[1,2-a]pyrazin-1-yl]-1-[4-(p-tolyl-methyl)-piperazin-1-yl]-ethanone] here?
A: 2.94%

Q: COc1ccc(CN2CCN(C(=O)CC3c4cccn4CCN3S(=O)(=O)c3ccccc3)CC2)cc1 (centres unmarked) [Example 233, 2-[2-(Benzenesulfonyl)-1,2,3,4-tetrahydro-pyrrolo[1,2-a]pyrazin-1-yl]-1-[4-[(4-methoxyphenyl)-methyl]-piperazin-1-yl]-ethanone] was tested. Which inhibition at 10 µM did it give?
A: 20.6%

Q: Which inhibition at 10 µM does the source give for O=C(CC1c2cccn2CCN1S(=O)(=O)c1ccccc1)N1CCN(Cc2ccccc2F)CC1 (centres unmarked) [Example 234, 2-[2-(Benzenesulfonyl)-1,2,3,4-tetrahydro-pyrrolo[1,2-a]pyrazin-1-yl]-1-[4-[(2-fluorophenyl)-methyl]-piperazin-1-yl]-ethanone] here?
A: 17.3%

Q: For O=C(CC1c2cccn2CCN1S(=O)(=O)c1ccccc1)NCC1CCCN(Cc2ccccc2)C1 (centres unmarked) [Example 235, 2-[2-(Benzenesulfonyl)-1,2,3,4-tetrahydro-pyrrolo[1,2-a]pyrazin-1-yl]-N-[(1-benzyl-piperidin-3-yl)-methyl]-acetamide], which inhibition at 10 µM is on record?
A: -14%

Q: How did the inhibition at 10 µM turn out when Cc1cc(C)c(CN2CCN(C(=O)CC3c4cccn4CCN3S(=O)(=O)c3cccc(C(F)(F)F)c3)CC2)c(C)c1 (centres unmarked) [Example 236, 2-[2-[[3-(Trifluoromethyl)phenyl]sulfonyl]-1,2,3,4-tetrahydro-pyrrolo[1,2-a]pyrazin-1-yl]-1-[4-[(2,4,6-trimethyl-phenyl)-methyl]-piperazin-1-yl]-ethanone] was run?
A: 9.23%

Q: COc1ccc(N2CCN(C(=O)CC3c4cccn4CCN3S(=O)(=O)c3ccc(C(F)(F)F)cc3Cl)CC2)cc1 (centres unmarked) [Example 237, 2-[2-[[2-Chloro-4-(trifluoromethyl)-phenyl]sulfonyl]-1,2,3,4-tetrahydro-pyrrolo[1,2-a]pyrazin-1-yl]-1-[4-(4-methoxyphenyl)-piperazin-1-yl]-ethanone] was tested. Which inhibition at 10 µM did it give?
A: 9.45%

From patent US8158628B2, “Sulfonylated 1,2,3,4-tetrahydropyrrolo[1,2-a]pyrazine compounds and their use as pharmaceuticals” (Gruenenthal GmbH, priority 2009, dated 2012)
